# Key:
# [1] = biological target: T1, PRKACA (Homo sapiens, UniProt P17612); assay: PRKACA assay at Km (EZ Reader 2 electrophoretic mobility shift); assay type: biochemical; settings: 5 μM ATP (Km), 1 μM Kemptide, 90 minutes at 25 C; read-out: Enz PRKACA IC50
# T1 construct: purchased Millipore 539482
# Procedure: (§1) A Perkin Elmer electrophoretic mobility shift platform (the EZ Reader 2) was used to assess the activity of test compounds against a kinase of interest. Fluorescently labeled substrate peptide was incubated in the presence of kinase, ATP, and the test compound, so that a portion of the peptide was phosphorylated by the enzyme. At the end of the reaction, the mix of phosphorylated (product) and non-phosphorylated (substrate) peptide containing solutions was passed through the microfluidic system of the Perkin Elmer EZ Reader 2 under an applied potential difference. The presence of the phosphate group on the product peptide provided a difference in mass and charge between those of the substrate peptide, resulting in a separation of the substrate and product pools in the sample. As the stopped solutions passed under the instrument's LED light the phosphorylated and un-phosphorylated fluorophore bound peptides were detected and resolved as separate peaks. The ratio between these peaks therefore reflected the test compound's impact on the kinase at that concentration in that well under those conditions.
# PRKACA assay at Km: In each well of a 384-well plate, 0.007 ng/ul (0.18 nM) of PRKACA enzyme (Millipore: 539482) was incubated in a total of 12.5 μl of buffer (100 mM HEPES pH 7.5, 0.015% Brij 35, 10 mM MgCl2, 1 mM DTT) with 1 μM Kemptide peptide substrate (5-FAM-LRRASLG) (Anaspec 29933) and 5 μM ATP at 25 C for 90 minutes in the presence or absence of a dosed concentration series of test compounds (1% DMSO final concentration). The reaction was stopped by the addition of 80 μl of Stop buffer (100 mM HEPES pH 7.5, 0.015% Brij 35, 35 mM EDTA and 0.2% of Coating Reagent 3 (Perkin Elmer)). The plate was then read on the EZ Reader 2 (protocol settings: −2.0 psi, upstream voltage −700, downstream voltage −2700, post sample sip 60 seconds). Data was normalized to 0% and 100% inhibition controls and the IC50 calculated using a 4-parameter fit using GraphPad Prism.
# [2] = biological target: T2, PRKACA-DNAJB1 (Homo sapiens, UniProt P17612); assay: PRKACA-DNAJB1 enzyme assay (EZ Reader 2 electrophoretic mobility shift); assay type: biochemical; settings: read-out: Enz PRKACA-DNAJB1 IC50
# T2 construct: DNAJB1 (fusion partner, P25685); the other entry of the earlier key: DNAJB1 (P25685, DnaJ homolog subfamily B member 1)
# Procedure: as §1
# [3] = system: PKA (phosphorylation of VASP on Serine 157); assay: Cellular potency assay: P-VASP(157) HTRF in Forskolin-stimulated Huh7 cells; assay type: cell-based; settings: Homo sapiens, Huh-7, 4 hours compound, 5 μM Forskolin 30 minutes, read-out: Phos VASP(S157) IC50
# Description: PKA directly phosphorylate VASP on Serine 157. Phosphorylation of VASP on Serine 157. P-VASP(157) was therefore used as a readout of PKA cellular activity. P-VASP(157) was detected with a HTRF assay, which is based on a TR-FRET sandwich immunoassay-based format comprising two specific anti-VASP antibodies following the manufactors protocol (Cisbio, Catalog No. 63ADK066PEH). PKA was activated in the assay by the addition of Forskolin (Sigma-Aldrich, Catalog No. F3917).
# Dose response in Forskolin-stimulated human Huh7 cells was measured as follows. Briefly, Huh7 cells were plated at a density of 2×10^4 cells per well in a 384-well opti-well cell culture plate in 15 μl of serum- and phenol-free Dulbecco's Modified Eagle Medium (DMEM, Gibco Catalog No. 21063-029), and incubated for over night at 37° C., 5% CO2. The next day, 3 μl of a dosed concentration series of test compound (0.24%) DMSO final concentration) was added to the wells, and the cells were incubated for an additional 4 hours at 37° C., 5% CO2. 2 μl of Forskolin was added at a final concentration of 5 μM and the plates were incubated for 30 minutes at 37° C., 5% CO2. 5 μl of lysis buffer containing 1% HALT protease cocktail inhibitors (ThermoFisher, Catalog No. 78430), was added to the cells and the mixture was incubated under gentle shaking for 30 min at room temperature. 10 μl of this lysate was transferred to a 384-well proxi plate and 2.5 μL of the premixed antibody solution was added. An antibody solution was prepared by combining phopho-VASP cryptate antibody and phospho-VASP d2 antibody, at twenty-fold dilution into a buffer solution following the manufactors' protocol. The lysate and antibody mixture was incubated for either 3 h at room temperature or overnight at 4° C. The fluorescence emission at two different wavelengths (665 nm and 620 nm) was read on an EnVision instrument.
# [4] = system: FL-HCC (LI5132) PDX tumors; assay: Efficacy study in FL-HCC (LI5132) patient-derived xenograft (PDX) model; assay type: in vivo; settings: oral delivery; compound 144: 30 mg/kg PO QDX34; FIG. 3
# Description: Efficacy: To establish the PDX model, 72 mice were inoculated with patient tumor cells to yield at least 36 mice with tumors of the required size. 18 of these mice were selected for the study.
smiles,measurement,setting,value
O=C(N[C@@H]1c2c(Cl)cccc2OC[C@@H]1O)c1ccc(-c2ccnc3[nH]ccc23)nc1 [Compound 139],IC50,[1],≤ 1 nM
same,IC50,[2],1.01 to 5 nM
same,IC50,[3],0.01 to 100 nM
O=C(N[C@@H]1c2c(F)cccc2OC[C@@H]1O)c1ccc(-c2ccnc3[nH]cc(F)c23)nc1 [Compound 141],IC50,[1],≤ 1 nM
same,IC50,[2],≤ 1 nM
same,IC50,[3],0.01 to 100 nM
O=C(N[C@@H]1c2ccccc2C[C@H]1N1CCCC1)c1ccc(-c2ccnc3[nH]ccc23)cc1 [Compound 142],IC50,[1],≤ 1 nM
same,IC50,[2],≤ 1 nM
same,IC50,[3],< 50 nM
"O=C(N[C@@H]1c2ccccc2C[C@H]1N1CCCC1)c1ccc(-c2ccnc3[nH]ccc23)nc1 [Compound 144, N-[(1R,2R)-2-(Pyrrolidin-1-yl)-2,3-dihydro-1H-inden-1-yl]-6-{1H-pyrrolo[2,3-b]pyridin-4-yl}pyridine-3-carboxamide]",FLC tumor growth inhibition,[4],significant FLC tumor growth inhibition
same,tolerability of the dose,[4],tolerated
same,IC50,[1],≤ 1 nM
same,IC50,[3],< 50 nM
O=C(N[C@@H]1c2c(ccc(F)c2F)C[C@@H]1O)c1ccc(-c2ccnc3[nH]cc(F)c23)nc1 [Compound 146],IC50,[1],≤ 1 nM
same,IC50,[2],≤ 1 nM
same,IC50,[3],0.01 to 100 nM
"Cc1c[nH]c2nccc(-c3ccc(C(=O)N[C@H]4C[C@@H](C)Oc5ccc(F)c(F)c54)cn3)c12 [Compound 148, N-[(2R,4S)-5,6-Difluoro-2-methyl-3,4-dihydro-2H-1-benzopyran-4-yl]-6-{3-methyl-1H-pyrrolo[2,3-b]pyridin-4-yl}pyridine-3-carboxamide]",IC50,[1],≤ 1 nM
same,IC50,[2],≤ 1 nM
same,IC50,[3],0.01 to 100 nM
C[C@@H]1Oc2ccc(F)c(F)c2[C@@H](NC(=O)c2ccc(-c3ccnc4[nH]ccc34)nc2)[C@@H]1O [Compound 150],IC50,[1],≤ 1 nM
same,IC50,[2],≤ 1 nM
same,IC50,[3],< 50 nM
C[C@H]1Oc2ccc(F)c(F)c2[C@@H](NC(=O)c2ccc(-c3ccnc4[nH]ccc34)nc2)[C@H]1O [Compound 151],IC50,[1],≤ 1 nM
same,IC50,[2],≤ 1 nM
same,IC50,[3],< 50 nM
Cc1c[nH]c2nccc(-c3ccc(C(=O)N[C@@H]4c5ccccc5C[C@H]4N4CCCC4)cn3)c12 [Compound 152],IC50,[1],1.01 to 5 nM
same,IC50,[2],1.01 to 5 nM
same,IC50,[3],0.01 to 100 nM
O=C(N[C@@H]1c2c(F)cc(C(F)F)cc2C[C@@H]1O)c1ccc(-c2ccnc3[nH]ccc23)nc1 [Compound 154],IC50,[1],≤ 1 nM
same,IC50,[2],≤ 1 nM
same,IC50,[3],< 50 nM
"O=C(N[C@@H]1c2c(F)cccc2C[C@H]1N1CCCC1)c1ccc(-c2ccnc3[nH]ccc23)nc1 [Compound 157, N-[(1R,2R)-7-Fluoro-2-(pyrrolidin-1-yl)-2,3-dihydro-1H-inden-1-yl]-6-{1H-pyrrolo[2,3-b]pyridin-4-yl}pyridine-3-carboxamide]",IC50,[1],≤ 1 nM
same,IC50,[2],≤ 1 nM
same,IC50,[3],< 50 nM
O=C(N[C@@H]1c2ccccc2C[C@H]1N1CCCC1)c1ccc(-c2ccnc3[nH]cc(F)c23)nc1 [Compound 159],IC50,[1],≤ 1 nM
same,IC50,[2],1.01 to 5 nM
same,IC50,[3],0.01 to 100 nM
Cc1c[nH]c2nccc(-c3ccc(C(=O)N[C@@H]4c5c(ccc(F)c5F)O[C@@H](C)[C@H]4O)cn3)c12 [Compound 160],IC50,[1],≤ 1 nM
same,IC50,[2],≤ 1 nM
same,IC50,[3],< 50 nM
Cc1c[nH]c2nccc(-c3ccc(C(=O)N[C@@H]4c5c(ccc(F)c5F)O[C@H](C)[C@@H]4O)cn3)c12 [Compound 161],IC50,[1],≤ 1 nM
same,IC50,[2],≤ 1 nM
same,IC50,[3],0.01 to 100 nM
"Cc1c[nH]c2nccc(-c3ccc(C(=O)N[C@@H]4c5c(F)cc(C(F)F)cc5C[C@@H]4O)cn3)c12 [Compound 162, N-[(1R,2S)-5-(Difluoromethyl)-7-fluoro-2-hydroxy-2,3-dihydro-1H-inden-1-yl]-6-{3-methyl-1H-pyrrolo[2,3-b]pyridin-4-yl}pyridine-3-carboxamide]",FLC tumor growth inhibition,[4],significant FLC tumor growth inhibition
same,tolerability of the dose,[4],tolerated
same,IC50,[1],≤ 1 nM
same,IC50,[2],≤ 1 nM
same,IC50,[3],< 50 nM
Cc1c[nH]c2nccc(-c3ccc(C(=O)N[C@@H]4c5c(F)cccc5C[C@H]4N4CCCC4)cn3)c12 [Compound 165],IC50,[1],≤ 1 nM
same,IC50,[2],≤ 1 nM
same,IC50,[3],< 50 nM
O=C(N[C@@H]1c2c(F)cccc2C[C@H]1N1CC[C@@H](O)C1)c1ccc(-c2ccnc3[nH]ccc23)nc1 [Compound 167],IC50,[1],≤ 1 nM
same,IC50,[2],≤ 1 nM
same,IC50,[3],0.01 to 100 nM
O=C(N[C@@H]1c2c(F)cccc2C[C@H]1N1CCCC1)c1ccc(-c2ccnc3[nH]cc(F)c23)nc1 [Compound 169],IC50,[1],≤ 1 nM
same,IC50,[2],≤ 1 nM
same,IC50,[3],< 50 nM
O=C(N[C@@H]1c2c(F)cccc2C[C@H]1N1CC[C@H](F)C1)c1ccc(-c2ccnc3[nH]ccc23)nc1 [Compound 170],IC50,[1],≤ 1 nM
same,IC50,[2],≤ 1 nM
same,IC50,[3],< 50 nM
CO[C@@H]1CCN([C@@H]2Cc3cccc(F)c3[C@H]2NC(=O)c2ccc(-c3ccnc4[nH]ccc34)nc2)C1 [Compound 173],IC50,[1],≤ 1 nM
same,IC50,[2],≤ 1 nM
same,IC50,[3],0.01 to 100 nM
Cc1c[nH]c2nccc(-c3ccc(C(=O)N[C@@H]4c5c(ccc(F)c5F)C[C@H]4N4CCCC4)cn3)c12 [Compound 175],IC50,[1],≤ 1 nM
same,IC50,[2],≤ 1 nM
same,IC50,[3],< 50 nM
O=C(N[C@@H]1c2c(Cl)cccc2C[C@H]1N1CC[C@@H](O)C1)c1ccc(-c2ccnc3[nH]ccc23)cn1 [Compound 176],IC50,[1],≤ 1 nM
same,IC50,[2],≤ 1 nM
same,IC50,[3],< 50 nM
C[C@]1(O)CCN([C@@H]2Cc3cccc(Cl)c3[C@H]2NC(=O)c2ccc(-c3ccnc4[nH]ccc34)nc2)C1 [Compound 180],IC50,[1],≤ 1 nM
same,IC50,[2],≤ 1 nM
same,IC50,[3],< 50 nM
O=C(N[C@@H]1c2c(Cl)cccc2C[C@H]1N1C[C@H](O)[C@@H](F)C1)c1ccc(-c2ccnc3[nH]ccc23)nc1 [Compound 185],IC50,[1],≤ 1 nM
same,IC50,[2],≤ 1 nM
same,IC50,[3],< 50 nM
O=C(N[C@@H]1c2c(Cl)cccc2C[C@H]1N1C[C@@H](F)[C@@H](O)C1)c1ccc(-c2ccnc3[nH]ccc23)nc1 [Compound 186],IC50,[1],≤ 1 nM
same,IC50,[2],1.01 to 5 nM
same,IC50,[3],< 50 nM
CO[C@@H]1CCN([C@@H]2Cc3cccc(Cl)c3[C@H]2NC(=O)c2ccc(-c3ccnc4[nH]cc(C)c34)nc2)C1 [Compound 188],IC50,[1],≤ 1 nM
same,IC50,[2],1.01 to 5 nM
same,IC50,[3],0.01 to 100 nM
CO[C@@H]1CCN([C@@H]2Cc3cccc(Cl)c3[C@H]2NC(=O)c2ccc(-c3ccnc4[nH]cc(F)c34)nc2)C1 [Compound 189],IC50,[1],≤ 1 nM
same,IC50,[2],≤ 1 nM
same,IC50,[3],0.01 to 100 nM
O=C(N[C@@H]1c2c(F)cc(C(F)F)cc2C[C@H]1N1CC[C@H](F)C1)c1ccc(-c2ccnc3[nH]ccc23)nc1 [Compound 190],IC50,[1],≤ 1 nM
same,IC50,[2],≤ 1 nM
same,IC50,[3],< 50 nM
CN(C)C(=O)[C@@H]1CCCN1[C@@H]1Cc2cccc(Cl)c2[C@H]1NC(=O)c1ccc(-c2ccnc3[nH]ccc23)nc1 [Compound 191],IC50,[1],≤ 1 nM
same,IC50,[2],≤ 1 nM
same,IC50,[3],< 50 nM

# Reference: patent US12583856B2, “Inhibitors of protein kinase A” (Blueprint Medicines Corporation, priority 2021, dated 2026)
